Test results reported in article PMC10122656, “Siglec-6 mediates the uptake of extracellular vesicles through a noncanonical glycolipid binding pocket” (Nature Communications, 2023).
Values joined by “and” are separate entries in the source; they are usually repeats but may differ in a detail not shown here. Equal entries are not always repeated.

Key:
Experiment in all cases: Cell assay (liposome/EV binding, flow cytometry)
Type in all cases: cell-based
R122A Siglec-6 CHO cells = target: T1, R122A Siglec-6 CHO cells (Homo sapiens, UniProt O43699, R122A); conditions: replicates; for log10(MFI AF647) of GLL relative to log10(MFI AF647) of the same GLL against UT CHO cells (Fig. 2a): Sig-6 R122A, 3 mol% ganglioside liposomes
T1 construct: expressed in transfected cells
Experimental: (§1) Stock lipids (DSPC, Cholesterol, PEG45–DSPE) solutions were prepared by solvating the lipids in chloroform. An appropriate volume of each lipid solution was transferred to a glass test tube to reach the desired mol% of the component. The chloroform was then removed under N2 gas to yield a lipid thin film. Once dry, 100 µL of DMSO was added to the lipid-containing test tube and then the functional lipids (ganglioside, AF647–PEG45–DSPE, Siglec ligand–PEG45–DSPE, pHrodo–PEG45–DSPE, NGL) was added from their respect DMSO stock solution. The lipid mixture was then stored at −80 °C until completely frozen at which point excess DMSO was removed via lyophilization. Dry lipids were then stored at −80 °C until they were extruded. Lipid suppliers can be found in Supplementary Table 4.
(§2) Dry lipids were then hydrated in 1 mL of PBS. The lipids were then sonicated in a bath sonicator in a cycle of 1 min on, 5 min off for a total of five cycles. Liposomes were then extruded using an Avanti mini extruder first using an 800 nm filter and then a 100 nm filter yielding liposomes that were 130 ± 35 nm (Supplementary Table 5) measured using a Malvern Panalytical Zetasizer Nano S. Liposomes were stored at 4 °C.
(§3) 200,000 cells/well were plated into a 96-well U-bottom microplate and centrifuged at 300 × g for 5 min. The cells were then resuspended in 50 µL of 50 µM liposome/50 µg/mL (protein concentration) of EV solution in DMEM F12 5% FBS and incubated at 37 °C for 30 min. Excess liposomes were then removed via centrifuged at 300 × g for 5 min followed by washing the cells with FACS solution. The cells were then resuspended in (1:250 V/V) anti-Siglec-flow buffer (1% V/V FBS, 500 µM, EDTA Hank’s Balanced Salt Solution pH 7.4), solution and left to rest on ice for 30 min. The cells were then centrifuged again at 300 × g for 5 min and the cells were resuspended in FACS buffer solution and were then ready for analysis by flow cytometry. Information regarding antibody clone, catalog number supplier, label isotype, and dilution can be found in Supplementary Table 6. The Siglec-positive cells were gated on for liposome-binding analysis (Supplementary Fig. 1b).
(§4) Flow cytometry measurements were collected on a 5-laser Fortessa X-20 (BD Bioscience). All the resulting data were analyzed using FlowJo (10.5.3) software (BD Biosciences).

Siglec-4 R118A CHO cells = target: T2, Siglec-4 R118A CHO cells (Homo sapiens, UniProt P20916, R118A); conditions: Sig-4 R118A†; † after treatment of cells with neuraminidase; 3 mol% ganglioside liposomes; replicates
T2 construct: expressed in transfected cells
T2 sequence (P20916 20-626 R118A): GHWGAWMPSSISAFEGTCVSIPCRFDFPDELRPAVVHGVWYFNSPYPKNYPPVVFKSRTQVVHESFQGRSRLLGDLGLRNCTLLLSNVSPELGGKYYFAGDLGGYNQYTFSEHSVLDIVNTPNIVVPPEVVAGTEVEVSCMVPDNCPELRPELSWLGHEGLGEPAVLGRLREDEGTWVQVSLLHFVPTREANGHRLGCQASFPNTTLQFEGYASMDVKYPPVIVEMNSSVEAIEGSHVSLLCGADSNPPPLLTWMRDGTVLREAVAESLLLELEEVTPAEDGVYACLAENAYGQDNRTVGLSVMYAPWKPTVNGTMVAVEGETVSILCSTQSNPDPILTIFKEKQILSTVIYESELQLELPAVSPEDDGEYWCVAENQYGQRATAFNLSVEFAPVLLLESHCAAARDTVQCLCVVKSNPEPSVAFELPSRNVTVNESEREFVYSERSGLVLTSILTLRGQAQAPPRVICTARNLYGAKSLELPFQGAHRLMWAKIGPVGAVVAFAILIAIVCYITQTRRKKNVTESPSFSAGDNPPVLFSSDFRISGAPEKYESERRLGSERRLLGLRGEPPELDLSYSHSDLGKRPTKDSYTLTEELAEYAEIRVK

Siglec-8 R125A CHO cells = target: T3, Siglec-8 R125A CHO cells (Homo sapiens, UniProt Q9NYZ4, R125A); conditions: Sig-8 R125A; 3 mol% ganglioside liposomes; replicates
T3 construct: expressed in transfected cells
Experimental: as §1, §2, §3, §4

Siglec-1 R116A CHO cells = target: T4, Siglec-1 R116A CHO cells (Homo sapiens, UniProt Q9BZZ2, R116A); conditions: Sig-1 R116A; 3 mol% ganglioside liposomes; replicates
T4 construct: expressed in transfected cells
Experimental: as §1, §2, §3, §4

[1] = target: T5, Siglec-10 R119A CHO cells (Homo sapiens, UniProt Q96LC7, R119A); conditions: Sig-10 R119A; 3 mol% ganglioside liposomes; replicates
T5 construct: expressed in transfected cells
T5 sequence (Q96LC7 17-697 R119A): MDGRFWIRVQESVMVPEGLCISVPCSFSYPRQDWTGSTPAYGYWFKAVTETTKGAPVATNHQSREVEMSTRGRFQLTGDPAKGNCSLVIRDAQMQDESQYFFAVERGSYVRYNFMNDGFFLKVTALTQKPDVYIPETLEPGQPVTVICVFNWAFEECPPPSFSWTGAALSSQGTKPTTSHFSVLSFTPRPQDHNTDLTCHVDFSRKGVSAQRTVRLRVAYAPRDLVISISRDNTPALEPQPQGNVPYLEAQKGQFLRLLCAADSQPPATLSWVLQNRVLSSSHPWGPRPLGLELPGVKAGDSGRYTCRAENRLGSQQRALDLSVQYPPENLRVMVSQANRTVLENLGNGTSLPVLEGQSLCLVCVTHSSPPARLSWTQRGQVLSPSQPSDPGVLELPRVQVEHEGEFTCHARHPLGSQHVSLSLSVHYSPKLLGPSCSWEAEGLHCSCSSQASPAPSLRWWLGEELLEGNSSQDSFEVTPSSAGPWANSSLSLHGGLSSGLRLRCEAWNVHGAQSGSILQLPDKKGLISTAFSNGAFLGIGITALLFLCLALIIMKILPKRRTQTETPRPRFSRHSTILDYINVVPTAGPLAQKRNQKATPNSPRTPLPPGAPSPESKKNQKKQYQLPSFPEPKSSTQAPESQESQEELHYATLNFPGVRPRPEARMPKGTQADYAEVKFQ
Experimental: as §1, §2, §3, §4

T3 sequence (Q9NYZ4 17-499 R125A): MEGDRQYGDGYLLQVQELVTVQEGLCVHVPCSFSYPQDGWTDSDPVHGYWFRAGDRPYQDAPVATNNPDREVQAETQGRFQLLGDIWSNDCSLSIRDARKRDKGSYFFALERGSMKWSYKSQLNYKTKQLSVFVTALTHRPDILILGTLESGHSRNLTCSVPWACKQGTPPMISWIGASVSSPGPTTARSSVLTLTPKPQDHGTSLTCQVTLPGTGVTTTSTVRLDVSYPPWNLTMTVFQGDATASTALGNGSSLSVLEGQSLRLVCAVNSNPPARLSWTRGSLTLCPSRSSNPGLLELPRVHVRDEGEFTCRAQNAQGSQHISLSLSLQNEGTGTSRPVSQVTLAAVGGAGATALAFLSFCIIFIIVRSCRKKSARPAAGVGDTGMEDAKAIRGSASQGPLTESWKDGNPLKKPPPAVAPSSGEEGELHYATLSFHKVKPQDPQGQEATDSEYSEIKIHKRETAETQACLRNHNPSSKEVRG
T4 sequence (Q9BZZ2 20-1709 R116A): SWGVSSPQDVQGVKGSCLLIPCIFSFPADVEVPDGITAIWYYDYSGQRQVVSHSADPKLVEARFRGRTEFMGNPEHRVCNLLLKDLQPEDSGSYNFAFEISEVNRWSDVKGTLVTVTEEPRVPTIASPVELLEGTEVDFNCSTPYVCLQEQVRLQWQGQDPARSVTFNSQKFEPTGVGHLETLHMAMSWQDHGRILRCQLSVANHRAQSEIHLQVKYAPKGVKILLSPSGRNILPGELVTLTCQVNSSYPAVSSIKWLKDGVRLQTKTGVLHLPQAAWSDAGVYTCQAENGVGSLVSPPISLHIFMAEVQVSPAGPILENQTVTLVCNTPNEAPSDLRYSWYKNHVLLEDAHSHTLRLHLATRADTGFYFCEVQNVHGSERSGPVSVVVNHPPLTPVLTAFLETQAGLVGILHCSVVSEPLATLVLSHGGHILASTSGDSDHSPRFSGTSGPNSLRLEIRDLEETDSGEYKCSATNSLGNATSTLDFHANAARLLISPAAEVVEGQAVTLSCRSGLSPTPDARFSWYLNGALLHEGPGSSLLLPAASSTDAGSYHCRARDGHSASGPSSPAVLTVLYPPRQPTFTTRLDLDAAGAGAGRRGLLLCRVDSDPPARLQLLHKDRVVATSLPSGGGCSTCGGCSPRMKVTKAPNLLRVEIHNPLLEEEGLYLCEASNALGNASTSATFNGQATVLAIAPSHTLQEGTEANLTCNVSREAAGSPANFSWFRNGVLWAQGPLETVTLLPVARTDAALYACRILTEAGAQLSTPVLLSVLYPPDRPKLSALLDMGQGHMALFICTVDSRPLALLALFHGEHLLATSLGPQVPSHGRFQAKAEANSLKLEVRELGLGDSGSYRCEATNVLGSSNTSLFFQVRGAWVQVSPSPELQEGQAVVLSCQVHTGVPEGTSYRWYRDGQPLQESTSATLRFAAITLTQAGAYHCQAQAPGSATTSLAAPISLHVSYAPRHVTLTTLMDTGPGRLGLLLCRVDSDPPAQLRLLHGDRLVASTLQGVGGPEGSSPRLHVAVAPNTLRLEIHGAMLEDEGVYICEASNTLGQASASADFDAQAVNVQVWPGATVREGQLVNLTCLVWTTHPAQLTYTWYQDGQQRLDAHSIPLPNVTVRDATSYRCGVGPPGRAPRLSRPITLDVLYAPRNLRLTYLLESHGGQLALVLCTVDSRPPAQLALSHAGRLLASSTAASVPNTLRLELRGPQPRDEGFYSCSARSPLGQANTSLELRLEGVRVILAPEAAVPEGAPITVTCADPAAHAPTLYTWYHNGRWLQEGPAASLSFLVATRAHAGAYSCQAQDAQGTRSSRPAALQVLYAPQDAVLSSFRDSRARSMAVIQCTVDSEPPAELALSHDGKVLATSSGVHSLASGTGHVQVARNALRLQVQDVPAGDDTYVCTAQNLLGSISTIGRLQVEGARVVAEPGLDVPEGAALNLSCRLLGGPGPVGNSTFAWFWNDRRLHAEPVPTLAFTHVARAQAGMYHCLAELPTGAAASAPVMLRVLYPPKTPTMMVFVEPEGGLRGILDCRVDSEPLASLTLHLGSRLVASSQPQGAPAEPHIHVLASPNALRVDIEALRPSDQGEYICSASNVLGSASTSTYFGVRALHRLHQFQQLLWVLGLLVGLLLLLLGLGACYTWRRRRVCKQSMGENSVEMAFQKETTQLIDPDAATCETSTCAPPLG
T1 sequence (O43699 27-453 R122A): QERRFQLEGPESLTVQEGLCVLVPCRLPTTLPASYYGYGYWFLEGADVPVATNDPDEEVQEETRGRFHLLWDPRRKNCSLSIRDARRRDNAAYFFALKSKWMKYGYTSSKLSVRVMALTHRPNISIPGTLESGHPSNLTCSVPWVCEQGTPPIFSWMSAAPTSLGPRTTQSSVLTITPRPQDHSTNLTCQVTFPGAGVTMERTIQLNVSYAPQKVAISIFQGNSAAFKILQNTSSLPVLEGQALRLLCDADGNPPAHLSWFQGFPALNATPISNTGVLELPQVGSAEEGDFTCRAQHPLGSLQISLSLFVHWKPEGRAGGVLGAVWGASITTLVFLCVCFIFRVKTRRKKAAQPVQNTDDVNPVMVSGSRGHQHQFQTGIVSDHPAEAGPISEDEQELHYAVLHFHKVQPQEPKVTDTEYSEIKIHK

| Molecule | Binding of nGL liposomes relative to liposomes formulated with 3 mol% nGL 5 (Fig. 3g) (R122A Siglec-6 CHO cells; R122A Siglec-6 CHO cells, 3 mol% nGL) | log10(MFI AF647) of GLL relative to log10(MFI AF647) of the same GLL against UT CHO cells (Fig. 2a) (Siglec-4 R118A CHO cells) | log10(MFI AF647) of GLL relative to log10(MFI AF647) of the same GLL against UT CHO cells (Fig. 2a) (Siglec-8 R125A CHO cells) | log10(MFI AF647) of GLL relative to log10(MFI AF647) of the same GLL against UT CHO cells (Fig. 2a) (Siglec-1 R116A CHO cells) | log10(MFI AF647) of GLL relative to log10(MFI AF647) of the same GLL against UT CHO cells (Fig. 2a) (R122A Siglec-6 CHO cells) | log10(MFI AF647) of GLL relative to log10(MFI AF647) of the same GLL against UT CHO cells (Fig. 2a) [1] |
| --- | --- | --- | --- | --- | --- | --- |
| CCCCCCCCCCCCCCCCOCC(COCCCCCCCCCCCCCCCC)OCc1cn(CCO[C@@H]2O[C@H](CO)[C@@H](O[C@@H]3O[C@H](CO)[C@H](O)[C@H](O[C@]4(C(=O)O)C[C@H](O)[C@@H](NC(C)=O)[C@H]([C@H](O)[C@H](O)CO)O4)[C@H]3O)[C@H](O)[C@H]2O)nn1 [nGL 5] | 1.02 and 1.01 and 0.97 | – | – | – | – | – |
| GD1a | – | 0 (2×) and 0.02 and 0.01 | -0.1 and -0.13 (3×) | -0.06 (2×) and -0.02 and -0.08 | 0.5 and 0.47 and 0.41 and 0.51 | 0.11 and 0.12 and 0.1 (2×) |
| GD1b | – | 0.08 and 0.05 and 0.02 and 0.03 | -0.14 and -0.15 and -0.17 and -0.19 | -0.26 (2×) and -0.25 and -0.21 | 0.2 and 0.17 (2×) and 0.16 | -0.02 and -0.04 and -0.01 and 0 |
| GD3 | – | -0.13 and -0.1 and -0.07 and -0.14 | -0.04 (2×) and -0.08 (2×) | -0.04 (2×) and -0.02 and 0.05 | 0.78 (2×) and 0.7 and 0.79 | 0.12 (2×) and 0.09 and 0.1 |
| GM1 | – | -0.3 and -0.31 (2×) and -0.32 | -0.02 and -0.06 and -0.08 and -0.03 | -0.21 and -0.24 and -0.22 and -0.2 | 0.91 and 0.89 and 0.86 and 0.85 | -0.02 and 0.03 and 0.04 and 0.09 |
| GM2 | – | 0 and -0.04 and -0.02 and -0.03 | -0.12 and -0.14 and -0.17 (2×) | -0.08 and -0.1 (2×) and -0.07 | 0.01 | 0.05 and 0.07 (2×) and 0.06 |
| GM3 | – | -0.24 and -0.19 (2×) and -0.2 | -0.18 and -0.17 and -0.2 (2×) | -0.19 and -0.23 and -0.18 and -0.21 | -0.11 (2×) and -0.14 (2×) | -0.12 (2×) and -0.13 (2×) |
| GM4 | – | -0.12 (2×) and -0.1 and -0.07 | -0.14 (3×) and -0.16 | -0.09 and -0.12 and -0.06 and -0.1 | 0 | 0 and -0.02 and 0.02 and 0.01 |
| GQ1b | – | -0.12 and -0.13 (2×) and -0.1 | 0.01 and -0.02 and -0.04 and -0.05 | -0.29 and -0.27 and -0.24 and -0.3 | 0.46 and 0.48 and 0.4 and 0.42 | -0.06 (2×) and -0.07 and -0.05 |
| GT1b | – | 0.12 and 0.1 and 0.13 and 0.14 | -0.22 (2×) and -0.23 and -0.24 | -0.14 (2×) and -0.15 and -0.1 | 0.72 and 0.7 and 0.61 and 0.69 | 0.05 and 0.03 (2×) and 0 |
